Test results taken from a melting point compilation (Tetko et al.; mined from patent text by program, amines drawn as free bases though some values may be those of a salt).

Row | SMILES | melting point [°C]
1 | CCCN(CCC)c1nc2c(N3CCCCCC3)nc(N3CCCCCC3)cc2c(=O)[nH]1 | 220
2 | O=C(/C=C/c1c[nH]c2ccc(OCc3ccccc3)cc12)c1ccncc1 | 218 to 221
3 | COCc1cnc(NC(=O)C(Cc2ccc(F)cc2)c2ccc(S(C)(=O)=O)cc2)cn1 (centres undefined) | 69 to 82.3
4 | CCN(CC)C(=O)c1c(OC)ccc2cc(-c3ccc(OC)cc3)ccc12 | 118 to 120
5 | CCOC(=O)C(=O)Nc1cccc(C)n1 | 61 to 63
6 | CCOCOc1cc(C)ccc1-c1cc(-c2cccc([N+](=O)[O-])c2)c(C#N)c(NC(=O)c2cccs2)n1 | 121 to 123
7 | Cc1oc(-c2ccccc2)nc1COc1ccc(C(=O)Nc2nn(-c3ccccc3)cc2C=O)cc1 | 185 to 186
8 | CCN1C(=O)NCC1c1ccc(OC)c(OC2CC3CCC2C3)c1 (centres undefined) | 149 to 153
9 | CC(C)(C)OC(=O)Nc1ccc(C(=O)O)c2ccccc12 | 194 to 195
10 | COc1cc(CC(=O)Nc2ccc(C3CN(C(=O)CCC(=O)O)CC3C(=O)O)cc2)ccc1NC(=O)Nc1ccccc1C (centres undefined) | 184
11 | CC(C)N=CCCC1(C(N)=O)c2ccccc2-c2ccccc21 | 149 to 155
12 | CCCCc1nc2ncncc2n1Cc1ccc2oc(-c3ccccc3-c3nnn[nH]3)c(Br)c2c1 | 211 to 213
13 | COc1ccc2c(c1)CCCC2(N)CO (centres undefined) | 89 to 95.6
14 | CCC(C)N(C)C(=O)c1cc(-c2ccccc2F)c2sccc2c1 (centres undefined) | 89
15 | CC(=O)Nc1cccc(C2CCNCC2)c1 | 102 to 104
16 | COC1C(C)OC(ON(C)Cc2ccc(-c3ncn(-c4ccc(OC(F)(F)F)cc4)n3)cc2)C(OC)C1OC (centres undefined) | 93 to 100
17 | CON=C(C(=O)OC)C1=C(C(=O)c2ccc(F)cc2)CC(C)=C(C)C1 | 97 to 98
18 | CCc1cccc(CC(=O)O)c1OCCn1cc(CCOc2ncc(C(F)(F)F)cc2Cl)c(OC(C)C)n1 | 76.5 to 77.5
19 | O=C(N[C@H](Cc1ccc(C(F)(F)F)cc1)[C@@H](O)c1ccc(F)cc1)c1cccc2c1-c1ccccc1C2=O (racemic) | 231 to 232
20 | CCC1(Cc2nc[nH]c2C)CCc2c(C)c3ccccc3n2C1=O (centres undefined) | 202 to 204
21 | Cc1ccc(OC2CCN(C(=O)C(=O)Nc3ccc4c(c3)OCC(=O)N4)CC2)cc1 | 226 to 228
22 | Cc1ccc(-c2nc(C)cc(Oc3ccccc3)n2)cc1 | 90 to 91
23 | O=c1cc[nH]c2c(Sc3nc4ccccc4[nH]3)cccc12 | > 240
24 | CCOc1ccc(C2(C(=O)O)CC2(C)C)cc1 (centres undefined) | 104 to 105
25 | CS(=O)(=O)c1ccc(-c2oc(CCC(N)=O)nc2-c2ccc(F)cc2)cc1 | 193 to 195
26 | COC(=O)[C@H](Cc1ccc([N+](=O)[O-])cc1)NC(=O)c1ccccc1F | 137 to 139

The next lines start with the values.

Row | melting point [°C] | SMILES
27 | 181 to 184 | CC(C)(C)C(=O)Nc1nn(C(=O)C(C)(C)C)c(N)c1C#N
28 | 160 to 162 | CCOc1cccc(-n2nc(C)c3c(O)c(C(=O)c4ccccc4)cnc32)n1
29 | 230 | Cn1cncc1C(O)(c1ccc(C=NO)cc1)c1ccc2[nH]c(=O)cc(-c3cccc(Cl)c3)c2c1 (centres undefined)
30 | 300 to 302 | Cc1csc(-c2cc(-c3ccncc3)c3n(c2=O)CCCc2ccncc2-3)n1
31 | 102 to 104 | CCOC(=O)c1cc2c(n1CCN)CCCC2
32 | 238 to 240 | CCCOc1ccccc1-c1[nH]c(=O)c(C(N)=O)cc1C
33 | 201 to 202 | NC(=O)C1CCN(c2ncncc2Cl)CC1
34 | 157 to 160 | CN1CCN(c2nc(-c3ccc(Cl)cc3)c(CCC(=O)O)o2)CC1
35 | 254 to 259 | CC(=O)c1c[nH]c(-c2ccc(O)cc2)n1
36 | 106 to 110 | CCOC(=O)Cn1c(C)cnc(NCC(F)(F)c2ccccc2)c1=O
37 | 141 to 143 | CN1C(=O)C(Cl)=C(C#N)C1=O
38 | 227 to 228 | COc1ccc(C(=O)Nc2c(Cl)cncc2Cl)cc1O
39 | 233 to 234 | CNc1nc(Cl)nc2c(SC)ncnc12
